Measurements as given in article PMC8949187, “Study of Structure–Activity Relationships of the Marine Alkaloid Fascaplysin and Its Derivatives as Potent Anticancer Agents” (Marine Drugs, 2022).

How the values were obtained:
[1] = test system: DU145 cells; assay: MTT assay, DU145 cells; type: cell-based, human; conditions: prostate cancer cells, 48 h of treatment, mean ± SD
Protocol: (§1) The human prostate cancer cell lines PC-3, DU145, 22Rv1 and LNCaP, as well as human prostate non-cancer cell line PNT2 were purchased from ATCC (Manassas, VA, USA). HEK 293T (human embryonic kidney cells) and MRC-9 (human fibroblast cells) cell lines were purchased from ECACC (Salisbury, UK). […] Authentication of all cell lines used was recently performed by a commercial service (Multiplexion GmbH, Heidelberg, Germany).
(§2) Cells were cultured as monolayers at 37 °C in a humidified atmosphere with 5% (v/v) CO2 in the correspondent culture medium: 10% FBS/RPMI medium (RPMI medium supplemented with Glutamax^TM-I (gibco® Life technologies^TM, Paisley, UK) containing 10% fetal bovine serum (FBS, gibco® Life technologies^TM) and 1% penicillin/streptomycin (Invitrogen)) for PNT2, LNCaP, 22Rv1, PC-3 and DU145 and cells; 10% FBS/DMEM medium (DMEM medium supplemented with Glutamax^TM-I (gibco® Life technologies^TM) containing 10% FBS and 1% penicillin/streptomycin (gibco® Life technologies^TM)) for MRC-9 and HEK 293 cells. Cells were continuously kept in culture for a maximum of 3 months, and were regularly checked for stable phenotype and mycoplasma infection.
(§3) Effect of the drugs on cell viability in terms of metabolic activity was assessed by MTT assay, as previously reported. Cells were pre-incubated overnight in 96-well plates (6 × 10^3 cells/well in 100 μL/well) in the correspondent culture media. Then, the medium was replaced with fresh 10% FBS/RPMI medium containing the investigated compounds (100 μL/well), and cells were incubated for 48 h, unless otherwise stated. Next, 10 μL/well of (3-(4,5-dimethylthiazol-2-yl)-2,5-diphenyltetrazolium bromide) reagent (MTT, 5 mg/mL) was added. After 2–4 h of incubation, the media was aspirated and the plates were dried. Then, 50 μL/well of DMSO was added to each well and the cell viability was measured using an Infinite F200PRO reader (TECAN, Männedorf, Switzerland). Results were calculated using the GraphPad Prism software v.9.1.1 (GraphPad Software, San Diego, CA, USA) and are represented as IC50 of the compounds calculated using the cells treated with the solvent alone as a control.

[2] = test system: prostate cancer cell lines (PC-3, 22Rv1, DU145 and LNCaP); assay: MTT assay, mean over four prostate cancer cell lines; type: cell-based; conditions: Homo sapiens; mean of MTT IC50 in PC-3, 22Rv1, DU145 and LNCaP; from Table S1 values; read-out: mean IC50 in cancer cells
Protocol: as §3, with “Next, SAR analysis was performed to identify the structural elements that are beneficial for anticancer activity of the fascaplysin-related molecules. Considering the complex and heterogeneous nature of tumors even within the same patient, we used calculated mean IC50 values of each drug in all prostate cancer cells for further analysis (Figure 2A). To identify the drug candidates with the highest therapeutic potential, the selectivity index (SI) was calculated as mean IC50 in non-cancer cells versus mean IC50 in cancer cells (Figure 2B), or as a mean IC50 in non-cancer (MRC-9 and HEK293) cells versus mean IC50 in prostate cells (cancer PC-3, 22Rv1, DU145, LNCaP and non-cancer PNT2 cells) (Figure 2C). Finally, to estimate the effects on cellular metabolism, we compared the activity evaluated by using trypan blue assay versus MTT assay (Figure 2D). Effect” for “Effect”, “2-4” for “2–4”, “F200PRO” left out

[3] = test system: PC-3 cells; assay: MTT assay, PC-3 cells; type: cell-based, human; conditions: prostate cancer cells, 48 h of treatment, mean ± SD
Protocol: as §1, §2, §3

[4] = test system: 22Rv1 cells; assay: Trypan blue-based viability assay; type: cell-based, human; conditions: 48 h of treatment, mean ± SD, read-out: IC50, trypan blue staining assay
Protocol: The effect of the drugs on cell viability in terms of cellular membrane integrity was evaluated by the trypan blue exclusion assay as described before. In brief, cells (0.2 × 10^6 cells/well) were seeded in 6-well plates and incubated overnight, and the media was replaced with fresh media (1 mL/well) containing drugs at indicated concentrations. After treatment for 48 h, the cells were harvested by trypsinization, stained with trypan blue and the viability was measured using an automatic Beckman Coulter Vi-CELL (Beckman Coulter, Krefeld, Germany). Trypan blue-positive cells were assumed to have damaged cellular membrane (i.e., dead), whereas trypan blue-negative cells were considered to have an intact cellular membrane (i.e., alive).

[5] = test system: 22Rv1 cells; assay: MTT assay, 22Rv1 cells; type: cell-based, human; conditions: prostate cancer cells, 48 h of treatment, mean ± SD
Protocol: as §1, §2, §3

[6] = test system: non-cancer cell lines versus cancer cell lines; assay: Selectivity index from MTT IC50s; type: cell-based, human; conditions: MTT; for Selectivity index, IC50 (non-prostate) / IC50 (prostate): mean IC50 MRC-9 and HEK-293 versus mean IC50 prostate cancer cell lines plus PNT2; for Selectivity index, IC50 (non-cancer) / IC50 (cancer): mean IC50 non-cancer cell lines versus mean IC50 cancer cell lines
Protocol: as §3, with “Next, SAR analysis was performed to identify the structural elements that are beneficial for anticancer activity of the fascaplysin-related molecules. Considering the complex and heterogeneous nature of tumors even within the same patient, we used calculated mean IC50 values of each drug in all prostate cancer cells for further analysis (Figure 2A). To identify the drug candidates with the highest therapeutic potential, the selectivity index (SI) was calculated as mean IC50 in non-cancer cells versus mean IC50 in cancer cells (Figure 2B), or as a mean IC50 in non-cancer (MRC-9 and HEK293) cells versus mean IC50 in prostate cells (cancer PC-3, 22Rv1, DU145, LNCaP and non-cancer PNT2 cells) (Figure 2C). Finally, to estimate the effects on cellular metabolism, we compared the activity evaluated by using trypan blue assay versus MTT assay (Figure 2D). Effect” for “Effect”, “2-4” for “2–4”, “F200PRO” left out

[7] = test system: 22Rv1 cells; assay: DNA fragmentation (apoptosis, sub-G1), flow cytometry with PI staining; type: cell-based, human; conditions: treated at IC50 (MTT assay) for 48 h, mean ± SD
Protocol: The effects on cell cycle progression and DNA fragmentation were analyzed by flow cytometry using PI staining, as described before. Cells (2 × 10^5 cells/well) were pre-incubated overnight in 6-well plates and then treated with the investigated drugs in fresh culture media (2 mL/well) for 48 h. Cells were harvested by trypsinization, fixed in 70% EtOH, stained with PI solution and analyzed by FACS Calibur (BD Bioscience, San Jose, CA, USA). The results were quantified using BD Bioscience Cell Quest Pro v.5.2.1. software (BD Bioscience). The cells appearing as a sub-G1 population (containing fragmented DNA) were considered to be apoptotic.

[8] = test system: LNCaP cells; assay: MTT assay, LNCaP cells; type: cell-based, human; conditions: prostate cancer cells, 48 h of treatment, mean ± SD
Protocol: as §1, §2, §3

[9] = test system: PNT2 cells; assay: MTT assay, PNT2 cells; type: cell-based, human; conditions: non-cancer cells, 48 h of treatment, mean ± SD
Protocol: as §1, §2, §3

[10] = test system: MRC-9 cells; assay: MTT assay, MRC-9 cells; type: cell-based, human; conditions: non-cancer cells, 48 h of treatment, mean ± SD
Protocol: as §1, §2, §3

[11] = test system: HEK-293 cells; assay: MTT assay, HEK-293 cells; type: cell-based, human; conditions: non-cancer cells, 48 h of treatment, mean ± SD
Protocol: as §1, §2, §3

[12] = test system: double-stranded calf thymus DNA; assay: Thiazole orange displacement (DNA intercalation) assay; type: binding; conditions: 1 µM calf thymus DNA base pairs, 2 µM thiazole orange; 7 min at room temperature; mean ± SD
Protocol: DNA intercalation activity of the compounds was calculated as an ability to displace thiazole orange (TO) from the double-stranded DNA. For this experiment, a mixture (100 µL) containing 1 µM of double-stranded calf thymus DNA (recalculated as a concentration of base pairs) and 2 µM of thiazole orange (TO) solved in water was prepared. Then, the investigated compounds were added up to final concentrations of 0.39–25 µM; DMSO concentration in the samples was <0.02%. Propidium iodide (PI, positive control) was added up to final concentrations of 0.039–2.5 uM. After 7 min of incubation at room temperature, TO fluorescence was monitored using a multimodal plate reader TECAN Spark (Tecan Group Ltd., Männedorf Switzerland) at the excitation λ = 480 nm; fluorescence was recorded at λ = 530 nm. The bandwidth was 10 nm. The concentration of the drug that caused a decrease in TO fluorescence by 50% (EC50) was determined by approximating the experimental data using a non-linear regression algorithm and calculated using the GraphPad Prism software v.9.1.1 (GraphPad Software, San Diego, CA, USA).

IC50 ([1]; Homo sapiens, DU-145) | IC50 [2] | IC50 ([3]; Homo sapiens, PC-3) | IC50 ([4]; Homo sapiens) | IC50 ([5]; Homo sapiens, 22Rv1) | % of sub-G1 apoptotic cells (at IC50) [7] | IC50 ([8]; Homo sapiens, LNCaP) | SMILES | Selectivity index, IC50 (non-prostate) / IC50 (prostate) [6] | Selectivity index, IC50 (non-cancer) / IC50 (cancer) [6] | IC50 ([9]; Homo sapiens, PNT2) | IC50 ([10]; Homo sapiens, MRC9) | IC50 ([11]; Homo sapiens, HEK293) | also measured
616 ± 94 nM | 2100 nM | 2950 ± 230 nM | 2850 ± 487 nM | 2240 ± 811 nM | 8.63±0.71% | 2600 ± 367 nM | O=C1c2ccc(Br)cc2-[n+]2ccc3c([nH]c4ccc(Br)cc43)c21.[Cl-] [Compound 15, 12,13-dihydro-3,9-dibromo-13-oxopyrido[1,2-a:3,4-b’]diindol-5-ium chloride] | 3.56 | 2.15 | 643 ± 49 nM | 12600 ± 6940 nM | 275 ± 21 nM | 
1350 ± 318 nM | 2000 nM | 3140 ± 980 nM | 1330 ± 277 nM | 2330 ± 870 nM | 13.1±2.86% | 1170 ± 84 nM | O=C1c2cc(Br)ccc2-[n+]2ccc3c([nH]c4ccc(I)cc43)c21.[Cl-] [Compound 11, 12,13-dihydro-2-bromo-9-iodo-13-oxopyrido[1,2-a:3,4-b’]diindol-5-ium chloride] | 9.15 | 5.55 | 860 ± 72 nM | 31900 ± 7070 nM | 480 ± 52 nM | 
913 ± 116 nM | 1090 nM | 1830 ± 100 nM | 215 ± 36 nM | 490 ± 39 nM | 24.0±5.37% | 1130 ± 803 nM | O=C1c2cc(Br)ccc2-[n+]2ccc3c([nH]c4ccc(Br)cc43)c21.[Cl-] [Compound 10, 12,13-dihydro-2,9-dibromo-13-oxopyrido[1,2-a:3,4-b’]diindol-5-ium chloride] | 2.62 | 1.78 | 614 ± 98 nM | 4960 ± 386 nM | 250 ± 34 nM | 

Second part, the compound before the results:

SMILES | IC50 ([1]; Homo sapiens, DU-145) | IC50 [2] | IC50 ([3]; Homo sapiens, PC-3) | IC50 ([4]; Homo sapiens) | IC50 ([5]; Homo sapiens, 22Rv1) | % of sub-G1 apoptotic cells (at IC50) [7] | IC50 ([8]; Homo sapiens, LNCaP) | Selectivity index, IC50 (non-prostate) / IC50 (prostate) [6] | Selectivity index, IC50 (non-cancer) / IC50 (cancer) [6] | IC50 ([9]; Homo sapiens, PNT2) | IC50 ([10]; Homo sapiens, MRC9) | IC50 ([11]; Homo sapiens, HEK293) | also measured
CC[N+](C)(CC)CCC[n+]1c(-c2ccccc2)c2cc(N)ccc2c2ccc(N)cc21 [PI, propidium iodide, reference compound] |  |  |  |  |  |  |  |  |  |  |  |  | EC50 [12]: 4 ± 0.5 nM
Cc1c[n+]2c(c3[nH]c4ccccc4c13)C(=O)c1ccccc1-2.[Cl-] [Compound 18, 12,13-dihydro-7-methyl-13-oxopyrido[1,2-a:3,4-b’]diindol-5-ium chloride] | 1790 ± 478 nM | 1110 nM | 1070 ± 550 nM | 472 ± 185 nM | 790 ± 38 nM | 23.1±3.42% | 803 ± 80 nM | 0.82 | 0.82 | 956 ± 92 nM | 1180 ± 96 nM | 590 ± 85 nM | 
O=C1c2cc(Br)ccc2-[n+]2ccc3c([nH]c4c(Br)cc(Br)cc43)c21.[Cl-] [Compound 13, 12,13-dihydro-2,9,11-tribromo-13-oxopyrido[1,2-a:3,4-b’]diindol-5-ium chloride] | 13200 ± 4440 nM | 7690 nM | 5940 ± 860 nM | 4480 ± 1650 nM | 3980 ± 300 nM | 27.6±7.52% | 7630 ± 740 nM | 2.29 | 1.59 | 4380 ± 674 nM | 30000 ± 5800 nM | 2250 ± 990 nM | 
O=C1c2ccc(Br)cc2-[n+]2ccc3c([nH]c4ccccc43)c21 [Compound 3, 3-bromofascaplysin] | 1510 ± 130 nM | 3300 nM | 10000 ± 6750 nM | 240 ± 41 nM | 417 ± 60 nM | 23.3±9.19% | 1250 ± 380 nM | 0.59 | 0.41 | 727 ± 60 nM | 2300 ± 870 nM | 1010 ± 71 nM | EC50 [12]: 700 ± 30 nM
N.N.[Cl][Pt][Cl] [Cis, Cisplatin, reference compound] |  |  |  |  |  | 14.7±3.43% |  | 0.92 | 1.23 |  |  |  | IC50 [1]: 1320 ± 530 nM; IC50 [3]: 34600 nM; IC50 [4]: 190 ± 44 nM; IC50 [5]: 990 ± 290 nM; IC50 [8]: 2750 ± 550 nM; IC50 [9]: 9410 ± 3120 nM; IC50 [10]: 6750 ± 1990 nM; IC50 [11]: 6440 ± 1770 nM
